The values below are quoted from earlier work in patent publication US20200354402A1, “PEPTIDE COMPOSITIONS AND RELATED METHODS” (Allegro Pharmaceuticals, LLC, priority 2017, published 2020).

The data set concerns ischemia-induced retinal neovascularization. The following applies: intravitreal injection; stated as known.

Turning to R—G—E.TFA [Test Compound 21], the “known activity of the control peptides” value is “known to be inactive”.
